Laboratory results as given in patent EP4745137A1 (Gluetacs Therapeutics (Shanghai) Co., Ltd., priority 2023, dated 2025).

Tests used:
WEE1 = molecular target: T1, WEE1 (Homo sapiens, UniProt P30291+Q96SW2); experiment: Western-blot assay of substrate protein degradation in hPBMCs, WEE1; assay type: cell-based; conditions: 24 hours of compound treatment, compounds tested at 50 nM and 500 nM (concentration of the table not stated)
T1 construct: endogenous in cells; host or cells: hPBMCs (Milecell Biotechnologies)

IKZF1 = molecular target: T2, IKZF1 (Homo sapiens, UniProt Q13422+Q96SW2); experiment: Western-blot assay of substrate protein degradation in hPBMCs, IKZF1; assay type: cell-based; conditions: 24 hours of compound treatment, compounds tested at 50 nM and 500 nM (concentration of the table not stated)
T2 construct: endogenous in cells; host or cells: hPBMCs (Milecell Biotechnologies)
T2 sequence (Q13422 whole entry): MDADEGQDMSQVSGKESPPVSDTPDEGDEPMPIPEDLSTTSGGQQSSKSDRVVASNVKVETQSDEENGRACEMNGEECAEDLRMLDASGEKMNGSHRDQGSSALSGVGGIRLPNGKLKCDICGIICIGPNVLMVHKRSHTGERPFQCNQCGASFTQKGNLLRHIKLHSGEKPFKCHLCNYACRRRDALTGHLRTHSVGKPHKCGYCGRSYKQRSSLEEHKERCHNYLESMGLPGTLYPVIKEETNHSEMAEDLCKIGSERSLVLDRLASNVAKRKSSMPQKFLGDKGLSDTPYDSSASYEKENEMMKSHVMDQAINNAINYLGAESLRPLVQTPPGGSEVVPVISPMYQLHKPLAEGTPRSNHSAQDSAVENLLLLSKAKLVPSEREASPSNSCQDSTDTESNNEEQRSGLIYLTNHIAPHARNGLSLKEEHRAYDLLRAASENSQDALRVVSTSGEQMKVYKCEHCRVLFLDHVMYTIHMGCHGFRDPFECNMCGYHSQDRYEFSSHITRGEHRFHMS
T2 sequence (Q96SW2 whole entry): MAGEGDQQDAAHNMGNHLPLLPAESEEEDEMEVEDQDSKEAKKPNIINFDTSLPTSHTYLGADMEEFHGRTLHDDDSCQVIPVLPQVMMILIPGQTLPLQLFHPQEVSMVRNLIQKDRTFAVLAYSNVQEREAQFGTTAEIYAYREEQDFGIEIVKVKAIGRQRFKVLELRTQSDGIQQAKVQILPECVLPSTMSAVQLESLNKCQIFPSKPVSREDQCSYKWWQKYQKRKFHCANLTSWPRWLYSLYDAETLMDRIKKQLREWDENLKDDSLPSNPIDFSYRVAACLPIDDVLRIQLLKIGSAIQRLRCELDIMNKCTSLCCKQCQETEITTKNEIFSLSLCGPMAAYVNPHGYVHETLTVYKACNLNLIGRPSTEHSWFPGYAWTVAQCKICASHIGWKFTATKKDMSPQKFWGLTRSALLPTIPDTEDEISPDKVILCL
T2 sequence (Q16531 whole entry partner): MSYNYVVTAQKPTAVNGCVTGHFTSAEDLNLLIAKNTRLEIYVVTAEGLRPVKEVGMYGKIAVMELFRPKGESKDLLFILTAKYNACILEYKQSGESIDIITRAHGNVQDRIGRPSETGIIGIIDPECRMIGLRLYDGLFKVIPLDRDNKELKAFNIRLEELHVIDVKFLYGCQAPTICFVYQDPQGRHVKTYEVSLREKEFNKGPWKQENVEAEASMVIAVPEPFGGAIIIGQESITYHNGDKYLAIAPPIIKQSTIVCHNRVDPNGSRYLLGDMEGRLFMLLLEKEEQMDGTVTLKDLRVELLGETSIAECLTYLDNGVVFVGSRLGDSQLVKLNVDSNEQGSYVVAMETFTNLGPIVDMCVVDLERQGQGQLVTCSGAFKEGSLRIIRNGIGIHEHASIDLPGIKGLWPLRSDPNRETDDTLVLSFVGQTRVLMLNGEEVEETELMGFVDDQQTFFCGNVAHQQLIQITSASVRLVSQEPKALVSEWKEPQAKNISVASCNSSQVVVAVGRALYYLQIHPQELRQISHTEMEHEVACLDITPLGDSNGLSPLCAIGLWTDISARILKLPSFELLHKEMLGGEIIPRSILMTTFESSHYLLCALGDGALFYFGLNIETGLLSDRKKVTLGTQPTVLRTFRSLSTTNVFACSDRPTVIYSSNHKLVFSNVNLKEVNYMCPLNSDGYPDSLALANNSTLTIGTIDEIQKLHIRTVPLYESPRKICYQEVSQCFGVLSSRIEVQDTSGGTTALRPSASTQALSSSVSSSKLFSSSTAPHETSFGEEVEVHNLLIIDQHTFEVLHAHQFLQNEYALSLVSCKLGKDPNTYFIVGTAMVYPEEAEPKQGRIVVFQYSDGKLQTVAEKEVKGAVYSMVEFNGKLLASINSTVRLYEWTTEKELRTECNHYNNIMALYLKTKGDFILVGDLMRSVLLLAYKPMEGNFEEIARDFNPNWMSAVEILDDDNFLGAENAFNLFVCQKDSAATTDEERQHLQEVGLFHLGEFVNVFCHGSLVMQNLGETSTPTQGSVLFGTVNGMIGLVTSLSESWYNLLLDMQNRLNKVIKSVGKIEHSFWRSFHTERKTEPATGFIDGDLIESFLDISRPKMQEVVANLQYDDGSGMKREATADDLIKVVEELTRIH

IKZF2 = molecular target: T3, IKZF2 (Homo sapiens, UniProt Q96SW2+Q9UKS7); experiment: Western-blot assay of substrate protein degradation in hPBMCs, IKZF2; assay type: cell-based; conditions: 24 hours of compound treatment, compounds tested at 50 nM and 500 nM (concentration of the table not stated)
T3 construct: endogenous in cells; host or cells: hPBMCs (Milecell Biotechnologies)
T3 sequence (Q9UKS7 whole entry): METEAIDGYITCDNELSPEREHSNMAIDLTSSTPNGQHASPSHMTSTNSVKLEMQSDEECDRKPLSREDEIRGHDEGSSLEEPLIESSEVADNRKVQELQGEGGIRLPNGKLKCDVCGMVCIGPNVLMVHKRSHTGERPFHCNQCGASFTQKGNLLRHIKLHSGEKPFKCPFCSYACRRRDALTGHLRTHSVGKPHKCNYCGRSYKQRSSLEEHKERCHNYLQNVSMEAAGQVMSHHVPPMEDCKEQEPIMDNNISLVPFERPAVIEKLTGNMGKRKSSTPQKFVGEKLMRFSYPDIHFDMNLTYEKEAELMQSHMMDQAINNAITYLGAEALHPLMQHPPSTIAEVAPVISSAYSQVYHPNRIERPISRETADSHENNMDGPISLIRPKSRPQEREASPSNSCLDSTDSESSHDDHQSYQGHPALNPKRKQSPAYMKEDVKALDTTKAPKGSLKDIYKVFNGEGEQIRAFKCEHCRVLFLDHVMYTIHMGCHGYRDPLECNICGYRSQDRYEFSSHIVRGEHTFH
T3 sequence (Q96SW2 whole entry): as the sequence (Q96SW2 whole entry) above
T3 sequence (Q16531 whole entry partner): as the sequence (Q16531 whole entry partner) above

IKZF3 = molecular target: T4, IKZF3 (Homo sapiens, UniProt Q96SW2+Q9UKT9); experiment: Western-blot assay of substrate protein degradation in hPBMCs, IKZF3; assay type: cell-based; conditions: 24 hours of compound treatment, compounds tested at 50 nM and 500 nM (concentration of the table not stated)
T4 construct: endogenous in cells; host or cells: hPBMCs (Milecell Biotechnologies)
T4 sequence (Q9UKT9 whole entry): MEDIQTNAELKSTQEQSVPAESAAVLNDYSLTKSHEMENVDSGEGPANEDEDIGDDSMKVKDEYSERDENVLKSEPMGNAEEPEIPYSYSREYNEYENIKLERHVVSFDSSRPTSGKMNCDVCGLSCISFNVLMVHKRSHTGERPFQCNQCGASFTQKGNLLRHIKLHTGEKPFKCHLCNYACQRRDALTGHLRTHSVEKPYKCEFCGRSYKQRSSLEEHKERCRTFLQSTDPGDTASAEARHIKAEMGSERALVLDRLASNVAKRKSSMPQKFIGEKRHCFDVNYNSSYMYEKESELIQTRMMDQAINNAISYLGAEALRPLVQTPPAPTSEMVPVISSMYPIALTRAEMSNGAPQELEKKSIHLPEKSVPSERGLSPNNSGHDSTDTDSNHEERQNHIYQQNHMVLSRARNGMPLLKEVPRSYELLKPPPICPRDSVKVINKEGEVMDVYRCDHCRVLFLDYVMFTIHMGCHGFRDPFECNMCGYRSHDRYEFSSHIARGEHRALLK
T4 sequence (Q96SW2 whole entry): as the sequence (Q96SW2 whole entry) above
T4 sequence (Q16531 whole entry partner): as the sequence (Q16531 whole entry partner) above

CK1α = molecular target: T5, CK1α (Homo sapiens, UniProt P48729+Q96SW2); experiment: Western-blot assay of substrate protein degradation in hPBMCs, CK1α; assay type: cell-based; conditions: 24 hours of compound treatment, compounds tested at 50 nM and 500 nM (concentration of the table not stated)
T5 construct: endogenous in cells; host or cells: hPBMCs (Milecell Biotechnologies)
T5 sequence (P48729 whole entry): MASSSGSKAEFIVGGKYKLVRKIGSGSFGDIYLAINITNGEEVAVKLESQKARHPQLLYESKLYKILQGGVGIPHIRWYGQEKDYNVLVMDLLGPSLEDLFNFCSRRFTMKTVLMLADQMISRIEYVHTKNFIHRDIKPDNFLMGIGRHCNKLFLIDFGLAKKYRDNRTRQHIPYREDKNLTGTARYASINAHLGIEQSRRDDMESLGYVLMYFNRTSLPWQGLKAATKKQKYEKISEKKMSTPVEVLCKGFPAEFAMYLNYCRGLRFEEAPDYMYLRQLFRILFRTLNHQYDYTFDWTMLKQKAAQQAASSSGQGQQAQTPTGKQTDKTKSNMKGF
T5 sequence (Q96SW2 whole entry): as the sequence (Q96SW2 whole entry) above
T5 sequence (Q16531 whole entry partner): as the sequence (Q16531 whole entry partner) above

GSPT1 = molecular target: T6, GSPT1 (Homo sapiens, UniProt P15170+Q96SW2); experiment: Western-blot assay of substrate protein degradation in hPBMCs, GSPT1; assay type: cell-based; conditions: 24 hours of compound treatment, compounds tested at 50 nM and 500 nM (concentration of the table not stated)
T6 construct: endogenous in cells; host or cells: hPBMCs (Milecell Biotechnologies)
T6 sequence (P15170 whole entry): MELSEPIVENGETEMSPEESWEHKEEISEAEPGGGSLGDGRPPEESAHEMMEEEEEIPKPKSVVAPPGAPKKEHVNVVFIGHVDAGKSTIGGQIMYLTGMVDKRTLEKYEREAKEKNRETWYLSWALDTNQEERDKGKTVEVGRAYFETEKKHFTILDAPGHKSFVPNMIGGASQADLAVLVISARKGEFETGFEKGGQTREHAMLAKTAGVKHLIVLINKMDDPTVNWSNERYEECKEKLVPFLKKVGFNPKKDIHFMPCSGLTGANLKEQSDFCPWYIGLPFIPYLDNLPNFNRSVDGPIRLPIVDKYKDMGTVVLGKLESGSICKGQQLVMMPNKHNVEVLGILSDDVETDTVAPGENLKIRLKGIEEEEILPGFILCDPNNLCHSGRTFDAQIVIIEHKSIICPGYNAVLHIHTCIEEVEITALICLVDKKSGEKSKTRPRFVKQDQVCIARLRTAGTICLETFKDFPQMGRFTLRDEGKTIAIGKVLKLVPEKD
T6 sequence (Q96SW2 whole entry): as the sequence (Q96SW2 whole entry) above
T6 sequence (Q16531 whole entry partner): as the sequence (Q16531 whole entry partner) above

[1] = molecular target: T7, human Cereblon WT GST-tagged protein (Homo sapiens, UniProt Q96SW2); experiment: CRBN-binding affinity by HTRF (CEREBLON BINDING kit); conditions: HTRF inhibitory activity, CEREBLON BINDING kit; read-out: HTRF IC50
T7 construct: purchased CISBIO 64BDCRBNPEH
T7 sequence (Q96SW2 whole entry): as the sequence (Q96SW2 whole entry) above

SR = experiment: Tumor cell proliferation inhibition (CellTiter-Meiluncell Luminescent Cell Viability Assay), SR; conditions: Homo sapiens, 96 h, read-out: inhibitory activity (IC50, nM) against tumor cells proliferation, SR
Method: (§1) The tumor cells used herein were cultured in a cell culture medium listed in table 2 at 37°C in an incubator with 5% CO2. Prior to experimentation, all cell lines used were correctly identified by STR profiling, and tested negative for mycoplasma contamination using a mycoplasma detection kit through routine screenings.
(§2) On the following day, the test compounds of the present disclosure were subjected to serial dilution. […] Subsequently, 0.5 µL of the test compound dilution was transferred into the 96-well plate containing the cells, with each well containing 100 µL of cell culture medium. […] Into the 96-well plate, the diluted test compounds and corresponding detection reagents were added, resulting in final test compound concentrations of 500 nM and 10 nM, respectively.
(§3) After the cells were treated with the compounds of the present disclosure for a specified period (the treatment durations were shown in Table 3), the cell viability assay reagent was added to the culture medium according to the kit's instructions to determine cell viability. […] All controls were treated using the same procedure as the compounds of the present disclosure. The growth inhibition curves for the compounds of the present disclosure were plotted using Prism GraphPad software, and the IC50 values were calculated therefrom.

Vcap = experiment: Tumor cell proliferation inhibition (CellTiter-Meiluncell Luminescent Cell Viability Assay), Vcap; conditions: Homo sapiens, 96 h, read-out: inhibitory activity (IC50, nM) against tumor cells proliferation, Vcap
MM.1R = experiment: Tumor cell proliferation inhibition (CellTiter-Meiluncell Luminescent Cell Viability Assay), MM.1R; conditions: Homo sapiens, 96 h, read-out: inhibitory activity (IC50, nM) against tumor cells proliferation, MM.1R
SW620 = experiment: Tumor cell proliferation inhibition (CellTiter-Meiluncell Luminescent Cell Viability Assay), SW620; conditions: Homo sapiens, SW-620, 96 h, read-out: inhibitory activity (IC50, nM) against tumor cells proliferation, SW620
Jurkat = experiment: Tumor cell proliferation inhibition (CellTiter-Meiluncell Luminescent Cell Viability Assay), Jurkat; conditions: Homo sapiens, 96 h, read-out: inhibitory activity (IC50, nM) against tumor cells proliferation, Jurkat
CAL-62 = experiment: Tumor cell proliferation inhibition (CellTiter-Meiluncell Luminescent Cell Viability Assay), CAL-62; conditions: Homo sapiens, CAL-62, 96 h, read-out: inhibitory activity (IC50, nM) against tumor cells proliferation, CAL-62
Method: as §1
On the following day, the test compounds of the present disclosure were subjected to serial dilution. […] Subsequently, 0.5 µL of the test compound dilution was transferred into the 96-well plate containing the cells, with each well containing 100 µL of cell culture medium. […] Into the 96-well plate, the diluted test compounds and corresponding detection reagents were added, resulting in final test compound concentrations of 500 nM and 10 nM, respectively. The experimental procedure is described below using the diluted 2 µM test compound as an example.
as §3

[2] = tested on: Human acute T lymphocytic leukemia cells (Molt-4); experiment: Tumor cell proliferation inhibition (CellTiter-Meiluncell Luminescent Cell Viability Assay), Molt-4; conditions: MOLT-4, 96 h, read-out: inhibitory activity (IC50, nM) against tumor cells proliferation, Molt 4
MGC803 = experiment: Tumor cell proliferation inhibition (CellTiter-Meiluncell Luminescent Cell Viability Assay), MGC803; conditions: Homo sapiens, MGC-803, 96 h, read-out: inhibitory activity (IC50, nM) against tumor cells proliferation, MGC803
Method: as §1, §2, §3

CCRF-CEM = experiment: Tumor cell proliferation inhibition (CellTiter-Meiluncell Luminescent Cell Viability Assay), CCRF-CEM; conditions: Homo sapiens, 96 h, read-out: inhibitory activity (IC50, nM) against tumor cells proliferation, CCRF-CEM
NCI-H1975 = experiment: Tumor cell proliferation inhibition (CellTiter-Meiluncell Luminescent Cell Viability Assay), NCI-H1975; conditions: Homo sapiens, NCI-H1975, 96 h, read-out: inhibitory activity (IC50, nM) against tumor cells proliferation, H1975
[3] = tested on: Human breast cancer cells (MDA-MB-231); experiment: Tumor cell proliferation inhibition (CellTiter-Meiluncell Luminescent Cell Viability Assay), MDA-MB-231; conditions: MDA-MB-231, 96 h, read-out: inhibitory activity (IC50, nM) against tumor cells proliferation, MDA-MB-231

Compound	Weel substrate protein remaining % (WEE1)	IKZF 1 substrate protein remaining % (IKZF1)	IKZF2 substrate protein remaining % (IKZF2)	IKZF3 substrate protein remaining % (IKZF3)	CK1a substrate protein remaining % (CK1α)	GSPT1 substrate protein remaining % (GSPT1)	IC50 [1]	IC50 (SR)	IC50 (Vcap)	IC50 (MM.1R)	IC50 (SW620)	IC50 (Jurkat)	IC50 (CAL-62)	IC50 [2]	IC50 (MGC803)	IC50 (CCRF-CEM)	IC50 (NCI-H1975)	IC50 [3]
O=C1CCC(N2Cc3cc(CN4CCN(c5ccc(Cl)cn5)CC4)ccc3C2=O)C(=O)N1 (stereo not drawn) [GT-04431, 3-(5-((4-(5-chloropyridin-2-yl)piperazin-1-yl)methyl)-1-oxoisoindolin-2-yl)piperidine-2,6-dione]	A (0% ≤ substrate protein remaining % ≤ 80%)	A (0% ≤ substrate protein remaining % ≤ 80%)	A (0% ≤ substrate protein remaining % ≤ 80%)	A (0% ≤ substrate protein remaining % ≤ 80%)	A (0% ≤ substrate protein remaining % ≤ 80%)	A (0% ≤ substrate protein remaining % ≤ 80%)	500 to 1000 nM	100 to 500 nM	10 to 50 nM	5 to 10 nM	50 to 100 nM	1 to 5 nM	5 to 10 nM	10 to 50 nM	50 to 100 nM	1 to 5 nM	50 to 100 nM	50 to 100 nM
O=C1CCC(N2Cc3cc(CN4CCN(c5ccc(Cl)c(Cl)c5)CC4)ccc3C2=O)C(=O)N1 (stereo not drawn) [GT-04437, 3-(5-((4-(3,4-dichlorophenyl)piperazin-1-yl)methyl)-1-oxoisoindolin-2-yl)piperidine-2,6-dione]	A (0% ≤ substrate protein remaining % ≤ 80%)	A (0% ≤ substrate protein remaining % ≤ 80%)	A (0% ≤ substrate protein remaining % ≤ 80%)	A (0% ≤ substrate protein remaining % ≤ 80%)	A (0% ≤ substrate protein remaining % ≤ 80%)	A (0% ≤ substrate protein remaining % ≤ 80%)	500 to 1000 nM	100 to 500 nM	10 to 50 nM	5 to 10 nM	50 to 100 nM	1 to 5 nM	10 to 50 nM	1 to 5 nM	50 to 100 nM	5 to 10 nM	50 to 100 nM	100 to 500 nM
O=C1CCC(N2Cc3cc(CN4CCN(c5ccccc5)CC4)ccc3C2=O)C(=O)N1 (stereo not drawn) [GT-04446, 3-(1-oxo-5-((4-phenylpiperazin-1-yl)methyl)isoindolin-2-yl)piperidine-2,6-dione]	A (0% ≤ substrate protein remaining % ≤ 80%)	A (0% ≤ substrate protein remaining % ≤ 80%)	A (0% ≤ substrate protein remaining % ≤ 80%)	A (0% ≤ substrate protein remaining % ≤ 80%)	A (0% ≤ substrate protein remaining % ≤ 80%)	A (0% ≤ substrate protein remaining % ≤ 80%)	500 to 1000 nM	100 to 500 nM	10 to 50 nM	5 to 10 nM	50 to 100 nM	1 to 5 nM	5 to 10 nM	1 to 5 nM	100 to 500 nM	5 to 10 nM	50 to 100 nM	100 to 500 nM
O=C1CCC(N2Cc3cc(CN4CCN(c5cccc(F)c5)CC4)ccc3C2=O)C(=O)N1 (stereo not drawn) [GT-04452, 3-(5-((4-(3-fluorophenyl)piperazin-1-yl)methyl)-1-oxoisoindolin-2-yl)piperidine-2,6-dione]	A (0% ≤ substrate protein remaining % ≤ 80%)	B (80%< substrate protein remaining %≤ 100%)	B (80%< substrate protein remaining %≤ 100%)	B (80%< substrate protein remaining %≤ 100%)	A (0% ≤ substrate protein remaining % ≤ 80%)	A (0% ≤ substrate protein remaining % ≤ 80%)	500 to 1000 nM	100 to 500 nM	10 to 50 nM	10 to 50 nM	100 to 500 nM	5 to 10 nM	10 to 50 nM	5 to 10 nM	100 to 500 nM	5 to 10 nM	100 to 500 nM	100 to 500 nM
O=C1CCC(N2Cc3cc(CN4CCN(c5ccc(F)cc5)CC4)ccc3C2=O)C(=O)N1 (stereo not drawn) [GT-04453, 3-(5-((4-(4-fluorophenyl)piperazin-1-yl)methyl)-1-oxoisoindolin-2-yl)piperidine-2,6-dione]	A (0% ≤ substrate protein remaining % ≤ 80%)	A (0% ≤ substrate protein remaining % ≤ 80%)	A (0% ≤ substrate protein remaining % ≤ 80%)	A (0% ≤ substrate protein remaining % ≤ 80%)	A (0% ≤ substrate protein remaining % ≤ 80%)	A (0% ≤ substrate protein remaining % ≤ 80%)	1000 to 1500 nM	500 to 1000 nM	50 to 100 nM	10 to 50 nM	100 to 500 nM	5 to 10 nM	10 to 50 nM	10 to 50 nM	100 to 500 nM	5 to 10 nM	100 to 500 nM	100 to 500 nM
O=C1CCC(N2Cc3cc(CN4CCN(c5ccccc5Cl)CC4)ccc3C2=O)C(=O)N1 (stereo not drawn) [GT-04454, 3-(5-((4-(2-chlorophenyl)piperazin-1-yl)methyl)-1-oxoisoindolin-2-yl)piperidine-2,6-dione]	A (0% ≤ substrate protein remaining % ≤ 80%)	A (0% ≤ substrate protein remaining % ≤ 80%)	A (0% ≤ substrate protein remaining % ≤ 80%)	A (0% ≤ substrate protein remaining % ≤ 80%)	A (0% ≤ substrate protein remaining % ≤ 80%)	A (0% ≤ substrate protein remaining % ≤ 80%)	500 to 1000 nM	100 to 500 nM	10 to 50 nM	10 to 50 nM	100 to 500 nM	5 to 10 nM	10 to 50 nM	10 to 50 nM	100 to 500 nM	10 to 50 nM	100 to 500 nM	100 to 500 nM
O=C1CCC(N2Cc3cc(CN4CCN(c5ccc(Cl)cc5)CC4)ccc3C2=O)C(=O)N1 (stereo not drawn) [GT-04455, 3-(5-((4-(4-chlorophenyl)piperazin-1-yl)methyl)-1-oxoisoindolin-2-yl)piperidine-2,6-dione]	A (0% ≤ substrate protein remaining % ≤ 80%)	A (0% ≤ substrate protein remaining % ≤ 80%)	A (0% ≤ substrate protein remaining % ≤ 80%)	A (0% ≤ substrate protein remaining % ≤ 80%)	A (0% ≤ substrate protein remaining % ≤ 80%)	A (0% ≤ substrate protein remaining % ≤ 80%)	500 to 1000 nM	100 to 500 nM	10 to 50 nM	5 to 10 nM	10 to 50 nM	1 to 5 nM	5 to 10 nM	1 to 5 nM	50 to 100 nM	1 to 5 nM	50 to 100 nM	50 to 100 nM
